Results published in patent US20240116946A1 (Gilead Sciences, Inc., priority 2022, published 2024).

Tests used:
SARS-CoV-2 main protease = SARS-CoV-2 main protease (Severe acute respiratory syndrome coronavirus 2 (2019-nCoV) (SARS-CoV-2), UniProt P0DTD1); experiment: activity comparison of separated atropisomers (assay not given); conditions: Isomer 1 versus Isomer 2 after chiral SFC separation; used to assign stereochemistry by analogy to Example 438
[1] = target: recombinant SARS-CoV-2 Main protease (Mpro) (Severe acute respiratory syndrome coronavirus 2 (2019-nCoV) (SARS-CoV-2), UniProt P0DTD1); experiment: Cov Mpro Biochemical IC50 Assay; conditions: recombinant SARS-CoV-2 Mpro 7.5 nM, fluorogenic peptide substrate 40 μM; read-out: MPro IC50
SARS-CoV-2-NLuc = experiment: microbe, parasite or virus in culture; format: cell-based, SARS Coronavirus 2; conditions: read-out: MPro EC50

Compound	relative activity of the two separated isomers (SARS-CoV-2 main protease)	IC50 [1] [nM]	EC50 (SARS-CoV-2-NLuc) [nM]
COc1ccc(Cl)c(-c2cc3[nH]c(=O)n(-c4cncc5cccnc45)c(=O)c3s2)c1 (single isomer, unassigned) [Example 468, 6-(2-chloro-5-methoxyphenyl)-3-(1,6-naphthyridin-8-yl)thieno[3,2-d]pyrimidine-2,4(1H,3H)-dione]	more active isomer	< 2.54	< 6.34
Cn1cc(-c2cccc(Cl)c2-c2cc3[nH]c(=O)n(-c4cncc5ccccc45)c(=O)c3s2)c(C(F)(F)F)n1 (single isomer, unassigned) [Example 447, 6-(2-chloro-6-(1-methyl-3-(trifluoromethyl)-1H-pyrazol-4-yl)phenyl)-3-(isoquinolin-4-yl)thieno[3,2-d]pyrimidine-2,4(1H,3H)-dione]	more active isomer	4.21	6.58
COc1ccc(Cl)c(-c2cc3[nH]c(=O)n(-c4cncc5ccccc45)c(=O)c3s2)c1 (single isomer, unassigned) [Example 465, 6-(2-chloro-5-methoxyphenyl)-3-(isoquinolin-4-yl)thieno[3,2-d]pyrimidine-2,4(1H,3H)-dione]	more active isomer	< 3.56	5.23
Cn1cnc(Cn2c(=O)n(-c3cncc4ccccc34)c(=O)c3sc(-c4ccccc4Cl)cc32)n1 (single isomer, unassigned) [Example 477, 6-(2-chlorophenyl)-3-(4-isoquinolyl)-1-[(1-methyl-1,2,4-triazol-3-yl)methyl]thieno[3,2-d]pyrimidine-2,4-dione]	more active isomer	58	165
O=c1[nH]c2cc(-c3ccccc3Cl)sc2c(=O)n1-c1cncc2cccnc12 (single isomer, unassigned) [Example 464, 6-(2-chlorophenyl)-3-(1,6-naphthyridin-8-yl)thieno[3,2-d]pyrimidine-2,4(1H,3H)-dione]	more active isomer	4.68	11.5
O=c1[nH]c2cc(-c3ccccc3Cl)sc2c(=O)n1-c1cncc2ccc(N3CCOCC3)cc12 (single isomer, unassigned) [Example 442, 6-(2-chlorophenyl)-3-(6-morpholinoisoquinolin-4-yl)thieno[3,2-d]pyrimidine-2,4(1H,3H)-dione]	more active isomer	< 3.43	12.3
COc1ccc(Cl)c(-c2ccc3c(=O)n(-c4cncc5ccccc45)c(=O)[nH]c3c2)c1 (single isomer, unassigned) [Example 475, 7-(2-chloro-5-methoxy-phenyl)-3-(4-isoquinolyl)-1H-quinazoline-2,4-dione]	more active isomer	17.1	28.5
COc1ccc2cncc(-n3c(=O)[nH]c4cc(-c5ccccc5Cl)sc4c3=O)c2c1 (single isomer, unassigned) [Example 440, 6-(2-chlorophenyl)-3-(6-methoxyisoquinolin-4-yl)thieno[3,2-d]pyrimidine-2,4(1H,3H)-dione]	more active isomer	< 3.94	13.4
